This assay deals with T1, PDE4B (human recombinant) (Homo sapiens, UniProt Q07343).
T1 construct: made in house
The experiment in a line: Inhibition of PDE4B activity: SPA and/or Fluorescence Polarisation (FP) assay. It is filed as biochemical. The note with it: one reading (n=1) or average of 2 or more readings, read-out: PDE4B pIC50 (±about 0.5) (converted). The method, boiled down:
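Human recombinant PDE4B activity measured by SPA with [3H]cAMP at about 10 nM, 1 h at ambient temperature, enzyme set for ≤20% substrate hydrolysis, or by IMAP FP with Fl-cAMP at about 40 nM, 40 min at ambient temperature under linear conditions. Inhibition curves fitted; values reported as pIC50.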
On the technique in general: Fluorescence polarisation rises when a labelled molecule tumbles more slowly, as on binding a larger partner.

Data on 30 compounds can be found in US20090131431A1, “Pyrazolo[3,4-b]pyridine compounds, and their use as a PDE4 inhibitors” (priority 2005, published 2009).

T1 sequence (Q07343 1-564 isoform Q07343-2): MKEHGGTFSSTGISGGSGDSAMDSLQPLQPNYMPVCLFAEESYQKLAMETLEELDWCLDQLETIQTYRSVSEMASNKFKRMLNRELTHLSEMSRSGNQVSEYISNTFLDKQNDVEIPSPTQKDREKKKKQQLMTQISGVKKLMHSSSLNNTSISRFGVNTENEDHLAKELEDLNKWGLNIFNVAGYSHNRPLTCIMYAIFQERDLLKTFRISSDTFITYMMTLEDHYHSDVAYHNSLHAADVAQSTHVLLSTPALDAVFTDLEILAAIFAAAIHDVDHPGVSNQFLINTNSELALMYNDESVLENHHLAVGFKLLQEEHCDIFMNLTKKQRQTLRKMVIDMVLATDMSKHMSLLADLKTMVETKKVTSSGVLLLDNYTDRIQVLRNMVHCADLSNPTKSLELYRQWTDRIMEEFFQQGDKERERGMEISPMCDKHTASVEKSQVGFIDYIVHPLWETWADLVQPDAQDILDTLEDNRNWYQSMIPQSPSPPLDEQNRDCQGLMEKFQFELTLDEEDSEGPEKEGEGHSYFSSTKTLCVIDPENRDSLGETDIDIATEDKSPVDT

Turning to `CCn1ncc2c(NC3CCOCC3)c(CNC(=O)c3ccc(C)cc3O)c(C)nc21` [Example 281, N-{[1-ethyl-6-methyl-4-(tetrahydro-2H-pyran-4-ylamino)-1H-pyrazolo[3,4-b]pyridin-5-yl]methyl}-2-hydroxy-4-methylbenzamide], the IC50 was 0.01 to 0.1 nM.
On to `CCc1nc2c(cnn2CC)c(NC2CCN(C(N)=O)CC2)c1CNC(=O)c1ccccc1O` [Example 211, 4-{[1,6-diethyl-5-({[(2-hydroxyphenyl)carbonyl]amino}methyl)-1H-pyrazolo[3,4-b]pyridin-4-yl]amino}-1-piperidinecarboxamide], for which the IC50 is 0.01 to 0.1 nM.
For `CCc1nc2c(cnn2CC)c(NC2CCOCC2)c1CNC(=O)c1ccc(N2CCOCC2)cc1` [Example 180, N-{[1,6-diethyl-4-(tetrahydro-2H-pyran-4-ylamino)-1H-pyrazolo[3,4-b]pyridin-5-yl]methyl}-4-(4-morpholinyl)benzamide] the value was 0.01 to 0.1 nM; for `CCn1ncc2c(NC3CCOCC3)c(CNC(=O)c3ccn(C)n3)c(C)nc21` [Example 229, N-{[1-ethyl-6-methyl-4-(tetrahydro-2H-pyran-4-ylamino)-1H-pyrazolo[3,4-b]pyridin-5-yl]methyl}-1-methyl-1H-pyrazole-3-carboxamide], 0.126 to 1 nM; for `CCn1ncc2c(NC3CCOCC3)c(CNC(=O)c3ccc(S(C)(=O)=O)cc3)c(C)nc21` [Example 124, N-{[1-ethyl-6-methyl-4-(tetrahydro-2H-pyran-4-ylamino)-1H-pyrazolo[3,4-b]pyridin-5-yl]methyl}-4-(methylsulfonyl)benzamide], 0.126 to 1 nM.
With `CCc1nc2c(cnn2CC)c(NC2CCOCC2)c1CN1Cc2ccc(C(F)(F)F)cc2C1=O` [Example 317, 2-{[1,6-diethyl-4-(tetrahydro-2H-pyran-4-ylamino)-1H-pyrazolo[3,4-b]pyridin-5-yl]methyl}-6-(trifluoromethyl)-2,3-dihydro-1H-isoindol-1-one], the IC50 is 0.01 to 0.1 nM.
For `CCn1ncc2c(NC3CCN(C(N)=O)CC3)c(CNC(=O)c3ccc(C)cc3O)c(C)nc21` [Example 265, 4-{[1-ethyl-5-({[(2-hydroxy-4-methylphenyl)carbonyl]amino}methyl)-6-methyl-1H-pyrazolo[3,4-b]pyridin-4-yl]amino}-1-piperidinecarboxamide] the value was 0.01 to 0.1 nM.
For `CCn1ncc2c(NC3CCN(C(N)=O)CC3)c(CNC(=O)c3ccc(C4CCCC4)cc3)c(C)nc21` [Example 273, 4-{[5-({[(4-cyclopentylphenyl)carbonyl]amino}methyl)-1-ethyl-6-methyl-1H-pyrazolo[3,4-b]pyridin-4-yl]amino}-1-piperidinecarboxamide] the value was 0.01 to 0.1 nM.
In the case of `CCOc1ccccc1C(=O)NCc1c(CC)nc2c(cnn2CC)c1NC1CCOCC1` [Example 160, N-{[1,6-diethyl-4-(tetrahydro-2H-pyran-4-ylamino)-1H-pyrazolo[3,4-b]pyridin-5-yl]methyl}-2-(ethyloxy)benzamide] it was 0.01 to 0.1 nM; in that of `CCc1nc2c(cnn2CC)c(NC2CCOCC2)c1CNC(=O)c1ccc(F)cc1` [Example 307, N-{[1,6-diethyl-4-(tetrahydro-2H-pyran-4-ylamino)-1H-pyrazolo[3,4-b]pyridin-5-yl]methyl}-4-fluorobenzamide], 0.126 to 1 nM.
Regarding `CCc1nc2c(cnn2CC)c(NC2CCOCC2)c1CNC(=O)c1ccn(C)n1` [Example 238, N-{[1,6-diethyl-4-(tetrahydro-2H-pyran-4-ylamino)-1H-pyrazolo[3,4-b]pyridin-5-yl]methyl}-1-methyl-1H-pyrazole-3-carboxamide], the IC50 is 0.126 to 1 nM.
For `CCc1nc2c(cnn2CC)c(NC2CCOCC2)c1CNC(=O)c1cnc(C(C)C)nc1` [Example 346, N-{[1,6-diethyl-4-(tetrahydro-2H-pyran-4-ylamino)-1H-pyrazolo[3,4-b]pyridin-5-yl]methyl}-2-(1-methylethyl)-5-pyrimidinecarboxamide] the value was 0.126 to 1 nM; for `CCn1ncc2c(NC3CCOCC3)c(CNC(=O)c3ccc(C)nc3)c(C)nc21` [Example 337, N-{[1-ethyl-6-methyl-4-(tetrahydro-2H-pyran-4-ylamino)-1H-pyrazolo[3,4-b]pyridin-5-yl]methyl}-6-methyl-3-pyridinecarboxamide], 0.126 to 1 nM; for `CCc1nc2c(cnn2CC)c(NC2CCOCC2)c1CNC(=O)c1ccc(N2CCCCC2)cc1` [Example 175, N-{[1,6-diethyl-4-(tetrahydro-2H-pyran-4-ylamino)-1H-pyrazolo[3,4-b]pyridin-5-yl]methyl}-4-(1-piperidinyl)benzamide], 0.01 to 0.1 nM.
In the case of `CCn1ncc2c(NC3CCN(C(N)=O)CC3)c(CNC(=O)c3ccc(C(=O)NC)cc3)c(C)nc21` [Example 268, N-[(4-{[1-(aminocarbonyl)-4-piperidinyl]amino}-1-ethyl-6-methyl-1H-pyrazolo[3,4-b]pyridin-5-yl)methyl]-N′-methyl-1,4-benzenedicarboxamide] it was 0.01 to 0.1 nM; in that of `CCc1nc2c(cnn2CC)c(NC2CCOCC2)c1CNC(=O)c1ccc(C)nc1` [Example 334, N-{[1,6-diethyl-4-(tetrahydro-2H-pyran-4-ylamino)-1H-pyrazolo[3,4-b]pyridin-5-yl]methyl}-6-methyl-3-pyridinecarboxamide], 0.126 to 1 nM.
For `CCn1ncc2c(NC3CCOCC3)c(CNC(=O)c3ccc(N(C)C)cc3)cnc21` [Example 88, 4-(dimethylamino)-N-{[1-ethyl-4-(tetrahydro-2H-pyran-4-ylamino)-1H-pyrazolo[3,4-b]pyridin-5-yl]methyl}benzamide], the IC50 was 0.126 to 1 nM.
Turning to `CCc1nc2c(cnn2CC)c(NC2CCN(C(N)=O)CC2)c1CNC(=O)c1cccc2c1OCC2` [Example 205, 4-[(5-{[(2,3-dihydro-1-benzofuran-7-ylcarbonyl)amino]methyl}-1,6-diethyl-1H-pyrazolo[3,4-b]pyridin-4-yl)amino]-1-piperidinecarboxamide], the IC50 is 0.01 to 0.1 nM.
In the case of `CCc1nc2c(cnn2CC)c(NC2CCOCC2)c1CN1Cc2ccccc2C1=O` [Example 199, 2-{[1,6-diethyl-4-(tetrahydro-2H-pyran-4-ylamino)-1H-pyrazolo[3,4-b]pyridin-5-yl]methyl}-2,3-dihydro-1H-isoindol-1-one] it was 0.01 to 0.1 nM.
For `CCn1ncc2c(NC3CCN(C(N)=O)CC3)c(CNC(=O)c3ccccc3F)c(C)nc21` [Example 266, 4-{[1-ethyl-5-({[(2-fluorophenyl)carbonyl]amino}methyl)-6-methyl-1H-pyrazolo[3,4-b]pyridin-4-yl]amino}-1-piperidinecarboxamide] the value was 0.126 to 1 nM; for `CCn1ncc2c(NC3CCOCC3)c(CN3Cc4ccc(C(F)(F)F)cc4C3=O)c(C)nc21` [Example 316, 2-{[1-ethyl-6-methyl-4-(tetrahydro-2H-pyran-4-ylamino)-1H-pyrazolo[3,4-b]pyridin-5-yl]methyl}-6-(trifluoromethyl)-2,3-dihydro-1H-isoindol-1-one], 0.01 to 0.1 nM; for `CCc1nc2c(cnn2CC)c(NC2CCOCC2)c1CNC(=O)c1cc(C#N)c(C(C)C)cc1OC` [Example 188, 5-cyano-N-{[1,6-diethyl-4-(tetrahydro-2H-pyran-4-ylamino)-1H-pyrazolo[3,4-b]pyridin-5-yl]methyl}-4-(1-methylethyl)-2-(methyloxy)benzamide], 0.01 to 0.1 nM.
Turning to `CCn1ncc2c(NC3CCOCC3)c(CNC(=O)c3ccco3)c(C)nc21` [Example 218, N-{[1-ethyl-6-methyl-4-(tetrahydro-2H-pyran-4-ylamino)-1H-pyrazolo[3,4-b]pyridin-5-yl]methyl}-2-furancarboxamide], the IC50 is 0.126 to 1 nM.
With `CCOc1ncccc1C(=O)NCc1c(CC)nc2c(cnn2CC)c1NC1CCOCC1` [Example 159, N-{[1,6-diethyl-4-(tetrahydro-2H-pyran-4-ylamino)-1H-pyrazolo[3,4-b]pyridin-5-yl]methyl}-2-(ethyloxy)-3-pyridinecarboxamide], the IC50 was 0.01 to 0.1 nM.
In the case of `CCc1nc2c(cnn2CC)c(NC2CCOCC2)c1CNC(=O)c1ccoc1C` [Example 195, N-{[1,6-diethyl-4-(tetrahydro-2H-pyran-4-ylamino)-1H-pyrazolo[3,4-b]pyridin-5-yl]methyl}-2-methyl-3-furancarboxamide] it was 0.126 to 1 nM; in that of `CCc1nc2c(cnn2CC)c(NC2CCN(C(N)=O)CC2)c1CNC(=O)c1cccc(NC(C)=O)c1` [Example 244, 4-({5-[({[3-(acetylamino)phenyl]carbonyl}amino)methyl]-1,6-diethyl-1H-pyrazolo[3,4-b]pyridin-4-yl}amino)-1-piperidinecarboxamide], 0.01 to 0.1 nM; in that of `CCc1nc2c(cnn2CC)c(NC2CCOCC2)c1CNC(=O)c1cc(S(=O)(=O)NC2CCC2)ccc1OC` [Example 186, 5-[(cyclobutylamino)sulfonyl]-N-{[1,6-diethyl-4-(tetrahydro-2H-pyran-4-ylamino)-1H-pyrazolo[3,4-b]pyridin-5-yl]methyl}-2-(methyloxy)benzamide], 0.01 to 0.1 nM.
For `CCc1nc2c(cnn2CC)c(NC2CCOCC2)c1CNC(=O)c1ccc2c(c1)CCC2` [Example 176, N-{[1,6-diethyl-4-(tetrahydro-2H-pyran-4-ylamino)-1H-pyrazolo[3,4-b]pyridin-5-yl]methyl}-2,3-dihydro-1H-indene-5-carboxamide] the value was 0.01 to 0.1 nM; for `CCn1ncc2c(NC3CCN(C(N)=O)CC3)c(CNC(=O)c3cccc(N4CCCC4=O)c3)c(C)nc21` [Example 267, 4-({1-ethyl-6-methyl-5-[({[3-(2-oxo-1-pyrrolidinyl)phenyl]carbonyl}amino)methyl]-1H-pyrazolo[3,4-b]pyridin-4-yl}amino)-1-piperidinecarboxamide], 0.01 to 0.1 nM; for `CCn1ncc2c(NC3CCOCC3)c(CNC(=O)c3cnc(C)s3)c(C)nc21` [Example 322, N-{[1-ethyl-6-methyl-4-(tetrahydro-2H-pyran-4-ylamino)-1H-pyrazolo[3,4-b]pyridin-5-yl]methyl}-2-methyl-1,3-thiazole-5-carboxamide], 0.126 to 1 nM.
